Here are results for three compounds from patent US11197862B2, “Methods of preventing toxicity of platinum drugs” (XOMICS BIOPHARMA, INC., priority 2015, dated 2021).

For series [1], the target named is T1, OCT2 (Homo sapiens, UniProt O15244).
T1 sequence (O15244 1-555): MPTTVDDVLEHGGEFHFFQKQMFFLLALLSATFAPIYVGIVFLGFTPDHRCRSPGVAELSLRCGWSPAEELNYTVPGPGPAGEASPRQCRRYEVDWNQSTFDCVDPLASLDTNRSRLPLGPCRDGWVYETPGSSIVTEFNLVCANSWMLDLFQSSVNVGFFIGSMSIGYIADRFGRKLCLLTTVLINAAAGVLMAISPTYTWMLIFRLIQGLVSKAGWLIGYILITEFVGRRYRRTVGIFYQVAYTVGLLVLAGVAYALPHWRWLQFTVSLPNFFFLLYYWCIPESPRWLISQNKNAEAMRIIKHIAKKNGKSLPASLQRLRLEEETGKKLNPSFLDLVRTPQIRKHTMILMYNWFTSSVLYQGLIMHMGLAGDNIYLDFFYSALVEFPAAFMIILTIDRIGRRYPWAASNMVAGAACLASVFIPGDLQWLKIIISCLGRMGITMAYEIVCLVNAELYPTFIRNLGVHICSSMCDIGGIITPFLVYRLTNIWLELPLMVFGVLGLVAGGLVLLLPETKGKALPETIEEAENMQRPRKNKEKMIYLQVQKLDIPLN
Put plainly: Cmax,u/IC50 or Cmax/IC50,app ratio for clinically relevant inhibition of OCT2-mediated oxaliplatin uptake. Also noted: expressed in transfected cells; host or cells: MDCK-II (Madin-Darby canine kidney type II). An excerpt:
The FDA has published guidance in predicting if a drug is likely to be a transporter inhibitor in clinics by using data attained in in vitro models. Cmax,u denotes the maximum free, unbound plasma concentration of a drug. […] Thus, characteristics of the in vitro model may be used to predict in vivo effectiveness.

For series [2] the following is noted: cited from earlier work; for Plasma protein binding (%): published data.
The next series concerns the target T2, OCT1 (Homo sapiens, UniProt O15245).
T2 sequence (O15245 1-554): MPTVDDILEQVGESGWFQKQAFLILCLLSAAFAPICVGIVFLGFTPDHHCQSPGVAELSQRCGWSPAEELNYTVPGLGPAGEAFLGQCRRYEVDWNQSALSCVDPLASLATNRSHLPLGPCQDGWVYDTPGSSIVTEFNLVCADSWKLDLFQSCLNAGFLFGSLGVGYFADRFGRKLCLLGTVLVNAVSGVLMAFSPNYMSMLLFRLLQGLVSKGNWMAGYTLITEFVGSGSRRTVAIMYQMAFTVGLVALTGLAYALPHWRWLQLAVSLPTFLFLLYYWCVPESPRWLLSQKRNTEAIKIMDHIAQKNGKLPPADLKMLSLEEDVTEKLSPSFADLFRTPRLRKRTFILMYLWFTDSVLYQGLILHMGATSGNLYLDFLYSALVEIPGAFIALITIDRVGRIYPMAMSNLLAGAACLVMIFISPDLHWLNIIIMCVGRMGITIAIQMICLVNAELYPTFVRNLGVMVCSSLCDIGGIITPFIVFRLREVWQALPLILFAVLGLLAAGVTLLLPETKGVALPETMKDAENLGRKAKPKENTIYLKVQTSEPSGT
Put plainly: Inhibition of OCT1-mediated oxaliplatin transport in human serum or 4% BSA HBSS.

Series [3] deals with T1, OCT2. Put plainly: Inhibition of OCT2-mediated oxaliplatin uptake in transfected MDCK-II cells (protein-free HBSS). As to conditions: for inhibition at 30 min, 5 μM / inhibition at 30 min, 50 μM / potency estimated from few doses at 30 min: human. The text has this:
Fully confluent MDCK cell monolayers were transfected with either cDNA plasmids encoding the human transporter to be tested or a GFP control. […] The cells were then washed with ice-cold PBS and lysed with 50:50 acetonitrile:H2O. Intracellular content of the substrate was quantified by LC/MS/MS or a MicroBeta radiometric plate reader.

For the next series, the system named is HT-29 cells. Briefly: Anti-proliferation study (SRB assay) in HT-29 cells. The following applies: for effect on anti-tumor potency of gemcitabine in HT-29: buflomedil 6 μM, FIG. 13; for effect on anti-tumor potency of 5-FU in HT-29: buflomedil 6 uM, dolutegravir 3, 6 and 9 μM, FIG. 12.
Another series addresses T3, OCT3 (Homo sapiens, UniProt O75751).
T3 sequence (O75751 1-556): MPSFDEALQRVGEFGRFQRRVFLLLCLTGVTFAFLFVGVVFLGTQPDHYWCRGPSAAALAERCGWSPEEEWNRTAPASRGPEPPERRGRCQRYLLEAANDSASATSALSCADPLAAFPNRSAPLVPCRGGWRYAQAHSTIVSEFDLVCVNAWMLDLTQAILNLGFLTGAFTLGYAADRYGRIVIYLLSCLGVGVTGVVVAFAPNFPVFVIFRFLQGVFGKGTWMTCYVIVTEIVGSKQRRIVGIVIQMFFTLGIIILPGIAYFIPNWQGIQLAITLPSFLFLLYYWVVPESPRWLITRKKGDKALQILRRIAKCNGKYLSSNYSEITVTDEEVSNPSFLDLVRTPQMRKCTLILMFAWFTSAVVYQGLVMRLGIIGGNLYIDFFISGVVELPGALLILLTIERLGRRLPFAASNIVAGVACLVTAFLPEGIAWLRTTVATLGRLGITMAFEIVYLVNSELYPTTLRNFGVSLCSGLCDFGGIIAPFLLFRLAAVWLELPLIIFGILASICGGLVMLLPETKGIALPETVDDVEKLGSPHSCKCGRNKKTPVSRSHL
Put plainly: Inhibition of OCT3-mediated oxaliplatin transport in human serum or 4% BSA HBSS.

Series [4] addresses T1, OCT2. Put plainly: Inhibition of OCT2-mediated oxaliplatin transport in 100% human serum or HBSS containing 4% BSA (IC50,app). The following applies: for fold higher potency for OCT2 over OCT1, OCT3, MATE1 and MATE2K in transporting oxaliplatin: from IC50,app of Table 4.
Series [5] deals with T1, OCT2. Put plainly: Inhibition of OCT2-mediated ASP+ uptake (Kido et al., Giacomini group). The following applies: human, cell line expressing human OCT2 (cell line not given), probe ASP+ 5 μM.
The target of series [6] is T1, OCT2. Briefly: Inhibition of OCT2-mediated metformin uptake in transfected MDCK-II cells.
Where [7] appears, read: read-out: Plasma peak total concentration Cmax, published clinical pharmacokinetic data.
Where [8] appears, read: IC50,app (μM), apparent inhibition constant in 100% human serum or HBSS containing 4% BSA, OCT2-mediated oxaliplatin uptake.
Where [9] appears, read: OCT2 IC50, app (μM), 100% human serum or HBSS containing 4% BSA, 20 μM or 100 μM oxaliplatin.
Setting [10] is: MDCK-II cells transfected with human OCT2, probe oxaliplatin 10 μM.
[11] abbreviates: 600 mg dosed IV bolus (FIG. 1B).

Entries after “also recorded” stand apart in the source; their conditions may differ. Where two headings read alike, the source gives them in different places.

Experimental for HT-29 cells: The potency was determined by the sulforhodamine B (SRB) assay in 96-well plates. […] Seeding density was 3000 cells/well for both cell lines.

Take `COc1cc(OC)c(C(=O)CCCN2CCCC2)c(OC)c1` [Buflomedil, 4-pyrrolidin-1-yl-1-(2,4,6-trimethoxyphenyl)butan-1-one]: the “Cmax/IC50, app ratio” value at OCT2 [1] (300 mg po, bid) was 4.69; on OCT2 [1] (600 mg slow-release, po, qd) it was 4.97. The “Mean Cmax” value was 2100 ng/mL in [2] (300 mg po, bid) and 2200 ng/mL in series [2] (600 mg slow-release, po, qd). In addition, the “Mean T1/2” value is 3.4 h in series [2] (300 mg po, bid) and above 10 h in series [2] (600 mg slow-release, po, qd). For the same compound, the average clearance was 292 mL/min in series [2] (Group A patients) and 99.5 mL/min in series [2] (Group B patients, seniors (average age 82 yrs) with impaired renal clearance). Also, the “Plasma protein binding (%)” value in series [2] is 70%. In addition, the Cmax in series [2] (read-out: Mean Cmax, 300 mg po, bid) is 6.8 µM; in [2] (read-out: Mean Cmax, 600 mg slow-release, po, qd), 7.2 µM; in [2] (setting [7]) it was 6.8 µM. In addition, the half-maximal inhibitory concentration (IC50) turned out to be 34.6 ± 7.6 µM against OCT1; 0.78 µM on OCT2 [3]; 28 ± 11.4 µM against OCT3; 1.45 µM at OCT2 [4] (setting [8]); 1.4 ± 0.2 µM at OCT2 [4] (setting [9]); 5.7 ± 0.8 µM against OCT2 [6]. In addition, on OCT2 [3], the inhibition at 30 min, 5 μM stood at 87%. For the same compound, the inhibition at 30 min, 50 μM at OCT2 [3] came to 105%. The “effect on anti-tumor potency of gemcitabine in HT-29” value in the series on HT-29 cells was “did not impact the anti-tumor effect of 5-FU and gemcitabine; also recorded: did not affect anti-tumor potency of gemcitabine”. In the series on HT-29 cells, the “effect on anti-tumor potency of 5-FU in HT-29” value was “did not impact the anti-tumor effect of 5-FU and gemcitabine; also recorded: did not affect anti-tumor potency of 5-FU”. Besides, at OCT2 [4], the “fold higher potency for OCT2 over OCT1, OCT3, MATE1 and MATE2K in transporting oxaliplatin” value is listed as “at least 20 fold”. Also, at OCT2 [5], the potency estimated from few doses was below 0.1 µM.

`C[C@@H]1CCO[C@H]2Cn3cc(C(=O)NCc4ccc(F)cc4F)c(=O)c(O)c3C(=O)N12` [Dolutegravir]: the “Cmax/IC50, app ratio” value on OCT2 [1] (50 mg po qd, day 10) is 4.36; on OCT2 [1] (50 mg po qd, single dose), 3.23. The “Mean Cmax” value in series [2] (50 mg po qd, day 10) was 6160 ng/mL; in series [2] (50 mg po qd, single dose), 4560 ng/mL. For the same compound, the “Mean T1/2” value is around 15 h in [2] (50 mg po qd, day 10) and 14.2 h in series [2] (50 mg po qd, single dose). For the same compound, the “Plasma protein binding (%)” value in series [2] is 99.5%. In addition, the Cmax was 14.7 µM in [2] (read-out: Mean Cmax, 50 mg po qd, day 10); 10.9 µM in series [2] (read-out: Mean Cmax, 50 mg po qd, single dose); 10.9 µM in series [2] (setting [7]). Moreover, the concentration for half-maximal inhibition (IC50) is above 100 µM on OCT1; 0.2 µM on OCT2 [3]; above 100 µM on OCT3; 3.37 µM on OCT2 [4] (setting [8]); 3.4 ± 1 µM against OCT2 [4] (setting [9]); 0.54 ± 0.09 µM against OCT2 [6]. In addition, the inhibition at 30 min, 5 μM against OCT2 [3] (setting [10]) was 83%. On OCT2 [3] (setting [10]), the inhibition at 30 min, 50 μM amounted to 97%. In addition, at OCT2 [3] (setting [10]), the potency estimated from few doses at 30 min is 0.2 µM. Moreover, the “effect on anti-tumor potency of gemcitabine in HT-29” value in the series on HT-29 cells is “did not impact the anti-tumor effect of 5-FU and gemcitabine”. Moreover, in the series with HT-29 cells, the “effect on anti-tumor potency of 5-FU in HT-29” value is “did not impact the anti-tumor effect of 5-FU and gemcitabine; also recorded: did not affect anti-tumor potency of 5-FU”.

Consider `Clc1ccc(COC(Cn2ccnc2)c2ccc(Cl)cc2Cl)c(Cl)c1` (stereo not drawn) [Miconazole], for which the “Cmax/IC50, app ratio” value at OCT2 [1] (800 mg IV) was 3.64. The “decrease of plasma concentration at 3 hour” value in series [2] (setting [11]) was “nearly five-fold decrease at 3 hour”. Also, the “plasma half-time (initial phase)” value in series [2] (setting [11]) was 0.4 h. Besides, the “Mean Cmax” value in series [2] (800 mg IV) is 5000 ng/mL. Besides, the “Mean T1/2 (hour), distribution phase” value in series [2] (800 mg IV) is reported as 0.4 (dis- hour. In addition, the “Mean T1/2 (hour), terminal phase” value in series [2] (800 mg IV) is “phase), 8.9 hour”. For the same compound, the “Plasma protein binding (%)” value in series [2] was 92%. Moreover, the Cmax was 12 µM in series [2] (read-out: Mean Cmax, 800 mg IV) and 14.9 µM in series [2] (setting [7]). Further, the IC50 on OCT1 is 8.4 ± 1.5 µM; against OCT2 [3] it was 1.55 µM; on OCT3, 49.2 ± 22.6 µM; on OCT2 [4] (setting [8]), 3.3 µM; against OCT2 [4] (setting [9]), 3.3 ± 0.6 µM; against OCT2 [6] it was 142 µM. Further, the inhibition at 30 min, 5 μM at OCT2 [3] worked out at 39%. The inhibition at 30 min, 50 μM against OCT2 [3] was 97%. The potency estimated from few doses at 30 min at OCT2 [3] (IC50 (μM) (substrate Oxaliplatin)) was 1.55 µM. For the same compound, the “fold higher potency for OCT2 over OCT1, OCT3, MATE1 and MATE2K in transporting oxaliplatin” value at OCT2 [4] is listed as “at least 2 fold”. Further, the potency estimated from few doses on OCT2 [5] is 2 µM. Further, at OCT2 [6] (comparison of Table 1 potencies), the “fold less potent in inhibiting OCT2-mediated metformin transport than ASP+ and oxaliplatin transport” value is “approximately 70 fold”.

Usually IC50 stands for the midpoint of a concentration-inhibition curve. For orientation: inhibition means the drop in the measured response relative to a control, in per cent.
